In series [1] the test system is Staphylococcus aureus. The series can be described thus: Antibacterial activity against methicillin-sensitive Staphylococcus aureus 209P after 24 hrs by liquid dilution method. The series is classed as functional.
Series [2] deals with Staphylococcus aureus. Nature of the series: Antibacterial activity against methicillin-resistant Staphylococcus aureus isolate OM481 after 24 hrs by liquid dilution method. In kind it is functional. The note with it: isolate OM481, 24 h.
The test system of series [3] is Staphylococcus aureus. Nature of the series: Antibacterial activity against methicillin-resistant Staphylococcus aureus isolate OM505 after 24 hrs by liquid dilution method. Conditions: isolate OM505, 24 h. The series is classed as functional.
Series [4] has as its system Pseudomonas aeruginosa. The series can be described thus: Antibacterial activity against Pseudomonas aeruginosa PAO1 assessed as inhibition of green pigment formation. The series is classed as functional.
In series [5] the test system is Pseudomonas aeruginosa. The series can be described thus: Antibacterial activity against Pseudomonas aeruginosa PAO1 after 24 hrs by liquid dilution method. In kind it is functional.
Series [6] has as its target T1, Albumin (Bos taurus, UniProt P02769). The series can be described thus: Binding affinity to bovine serum albumin assessed as retention time for compound-protein complex formation at 0.5 mg/ml by size exclusion chromatographic method (reference value: 16 mins). The series is classed as ADME. The note with it: cattle. (In gel filtration, larger molecules generally elute earlier.)

Series [7] concerns the target T1, Albumin. Nature of the series: Binding affinity to bovine serum albumin by SDS-PAGE analysis. In kind it is ADME. The note with it: cattle, isolated protein.
Series [8] has as its system Staphylococcus aureus. Nature of the series: Antibacterial activity against methicillin-sensitive Staphylococcus aureus 209P. In kind it is functional.
Series [9] relates to Staphylococcus aureus. Nature of the series: Antibacterial activity against methicillin-resistant Staphylococcus aureus isolate OM481. In kind it is functional.
The test system of series [10] is Staphylococcus aureus. Nature of the series: Antibacterial activity against methicillin-resistant Staphylococcus aureus isolate OM505. The series is classed as functional.

This note sets out measurements from ChEMBL document CHEMBL4130481, “Structures and Antibacterial Properties of Isorugosins H-J, Oligomeric Ellagitannins from Liquidambar formosana with Characteristic Bridging Groups between Sugar Moieties” (J Nat Prod, 2017).

≈ marks a conversion by molar mass, not a printed value. Calls of active or inactive are those of the source. The calls are words filed in the database; no cut-off is given here. Where only a bound is given, the exact number is not on record here.

T1 sequence (P02769 whole entry): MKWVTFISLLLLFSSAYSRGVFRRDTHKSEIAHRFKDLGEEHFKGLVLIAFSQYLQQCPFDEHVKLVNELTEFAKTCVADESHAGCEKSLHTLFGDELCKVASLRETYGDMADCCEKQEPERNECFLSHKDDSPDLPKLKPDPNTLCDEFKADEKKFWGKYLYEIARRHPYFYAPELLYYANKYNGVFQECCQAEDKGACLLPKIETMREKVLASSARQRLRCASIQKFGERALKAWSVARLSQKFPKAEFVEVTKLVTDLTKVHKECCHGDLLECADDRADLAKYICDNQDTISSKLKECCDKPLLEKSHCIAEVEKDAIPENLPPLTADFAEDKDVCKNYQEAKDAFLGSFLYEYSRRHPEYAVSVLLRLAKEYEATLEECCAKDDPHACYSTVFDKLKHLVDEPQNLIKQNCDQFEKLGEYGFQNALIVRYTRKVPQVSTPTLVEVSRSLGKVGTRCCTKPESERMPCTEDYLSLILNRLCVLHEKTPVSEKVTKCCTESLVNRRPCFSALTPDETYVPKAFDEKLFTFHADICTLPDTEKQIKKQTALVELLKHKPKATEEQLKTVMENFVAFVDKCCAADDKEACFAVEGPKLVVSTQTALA

By MIC is commonly meant the lowest concentration found to suppress growth. For the molecule `Cc1onc(-c2ccccc2)c1C(=O)N[C@@H]1C(=O)N2[C@@H]1SC(C)(C)[C@@H]2C(=O)O` [OXACILLIN], the MIC in the series on Staphylococcus aureus [1] is less than 0.6 µM; with Staphylococcus aureus [2] it was 638 µM (≈ 256 µg/mL); against Staphylococcus aureus [3], 319 µM (≈ 128 µg/mL).
In the case of `O=C(O[C@@H]1COC(=O)c2cc(O)c(O)c(O)c2-c2c(cc(O)c(O)c2O)C(=O)O[C@H]1[C@@H]1OC(=O)c2cc(O)c(O)c(O)c2-c2c(O)c(O)c(O)c3c2C(=O)O[C@H]1[C@H]3O)c1cc(O)c(O)c(O)c1`, the inhibition result in the series with Pseudomonas aeruginosa [4] was “Active”.
As to `O=C(O[C@H]1[C@@H]2OC(=O)c3cc(Oc4c(C(=O)O)cc(O)c(O)c4O)c(O)c(O)c3-c3c(cc(O)c(O)c3O)C(=O)OC[C@H]2OC(O)[C@@H]1OC(=O)c1cc(O)c(O)c(O)c1)c1cc(O)c(O)c(O)c1` (some centres undefined), the MIC against Staphylococcus aureus [1] was 67 µM (≈ 64 µg/mL); in the series with Staphylococcus aureus [2], 34 µM (≈ 32.5 µg/mL); with Staphylococcus aureus [3], 67 µM (≈ 64 µg/mL); against Pseudomonas aeruginosa [5] (PAO1, 24 h), more than 1070 µM; with Pseudomonas aeruginosa [4], 34 µM (≈ 32.5 µg/mL). For the same molecule, the Retention time at Albumin [6] lay in the range of 9 to 12 min. Besides, on Albumin [7], the outcome was Active.
In the case of `O=C(O[C@@H]1O[C@@H]2COC(=O)c3cc(O)c(O)c(O)c3-c3c(cc(Oc4c(C(=O)O[C@@H]5O[C@@H]6COC(=O)c7cc(O)c(O)c(O)c7-c7c(cc(O)c(O)c7O)C(=O)O[C@H]6[C@H](OC(=O)c6cc(O)c(O)c(O)c6)[C@H]5OC(=O)c5cc(O)c(O)c(O)c5)cc(O)c(O)c4O)c(O)c3O)C(=O)O[C@H]2[C@H](OC(=O)c2cc(O)c(O)c(O)c2)[C@H]1OC(=O)c1cc(O)c(O)c(O)c1)c1cc(O)c(O)c(O)c1`, the MIC against Staphylococcus aureus [1] was 34 µM (≈ 63.8 µg/mL); against Staphylococcus aureus [2], 34 µM (≈ 63.8 µg/mL); in the series with Staphylococcus aureus [3], 68 µM (≈ 128 µg/mL); with Pseudomonas aeruginosa [5] (PAO1, 24 h), more than 546 µM; in the series with Pseudomonas aeruginosa [4], 34 µM (≈ 63.8 µg/mL). The Retention time on Albumin [6] lay within 9 to 12 min. In addition, the outcome on Albumin [7] was Active.
`NCC[C@H](O)C(=O)N[C@@H]1C[C@H](N)[C@@H](O[C@H]2O[C@H](CN)[C@@H](O)[C@H](O)[C@H]2O)[C@H](O)[C@H]1O[C@H]1O[C@H](CO)[C@@H](O)[C@H](N)[C@H]1O` [AMIKACIN] gave an MIC in the series on Pseudomonas aeruginosa [5] (PAO1, 24 h) of 14 µM (≈ 8.2 µg/mL).
As to GENTAMICIN, in the series on Pseudomonas aeruginosa [5], the MIC is 17 µM.
As for `O=C(O[C@@H]1O[C@@H]2COC(=O)c3cc(O)c(O)c(O)c3-c3c(cc(Oc4c(C(=O)O)cc(O)c(O)c4O)c(O)c3O)C(=O)O[C@H]2[C@H](OC(=O)c2cc(O)c(O)c(O)c2)[C@H]1OC(=O)c1cc(O)c(O)c(O)c1)c1cc(O)c(O)c(O)c1`, the MIC is 58 µM (≈ 64.2 µg/mL) against Staphylococcus aureus [1]; 29 µM (≈ 32.1 µg/mL) in the series with Staphylococcus aureus [2]; 58 µM (≈ 64.2 µg/mL) against Staphylococcus aureus [3]; more than 926 µM in the series on Pseudomonas aeruginosa [5] (PAO1, 24 h); 29 µM (≈ 32.1 µg/mL) with Pseudomonas aeruginosa [4]. In addition, the Retention time at Albumin [6] lay within 9 to 12 min. Moreover, the result on Albumin [7] was Active.
`O=C(OC[C@H]1O[C@@H](OC(=O)c2cc(O)c(O)c(O)c2)[C@H](OC(=O)c2cc(O)c(O)c(O)c2)[C@@H](OC(=O)c2cc(O)c(O)c(O)c2)[C@@H]1OC(=O)c1cc(O)c(O)c(O)c1)c1cc(O)c(O)c(O)c1` [PENTAGALLOYL GLUCOSE]: the inhibition entry with Pseudomonas aeruginosa [4] was “Active”. Besides, the MIC in the series on Staphylococcus aureus [8], against Staphylococcus aureus [9] and in the series with Staphylococcus aureus [10] was 68 µM (≈ 64 µg/mL) throughout.
Regarding `O=C(O[C@@H]1O[C@@H]2COC(=O)c3cc(O)c(O)c(O)c3-c3c(cc(Oc4c(C(=O)O[C@@H]5O[C@@H]6COC(=O)c7cc(O)c(O)c(O)c7-c7c(cc(Oc8c(C(=O)O[C@@H]9O[C@@H]%10COC(=O)c%11cc(O)c(O)c(O)c%11-c%11c(cc(O)c(O)c%11O)C(=O)O[C@H]%10[C@H](OC(=O)c%10cc(O)c(O)c(O)c%10)[C@H]9OC(=O)c9cc(O)c(O)c(O)c9)cc(O)c(O)c8O)c(O)c7O)C(=O)O[C@H]6[C@H](OC(=O)c6cc(O)c(O)c(O)c6)[C@H]5OC(=O)c5cc(O)c(O)c(O)c5)cc(O)c(O)c4O)c(O)c3O)C(=O)O[C@H]2[C@H](OC(=O)c2cc(O)c(O)c(O)c2)[C@H]1OC(=O)c1cc(O)c(O)c(O)c1)c1cc(O)c(O)c(O)c1`, the MIC in the series with Staphylococcus aureus [1] was 23 µM (≈ 64.7 µg/mL); with Staphylococcus aureus [2] it was 91 µM (≈ 256 µg/mL); against Staphylococcus aureus [3], 91 µM (≈ 256 µg/mL); against Pseudomonas aeruginosa [5] (PAO1, 24 h), more than 364 µM; in the series with Pseudomonas aeruginosa [4], 23 µM (≈ 64.7 µg/mL). At Albumin [6], the Retention time lay in the range of 9 to 12 min. Further, at Albumin [7], the result was Active.
With `O=C1OC[C@H]2O[C@H](O)[C@@H]3OC(=O)c4cc(O)c(O)c(O)c4-c4c(cc(O)c(O)c4O)C(=O)O[C@H]3[C@@H]2OC(=O)c2cc(O)c(O)c(O)c2-c2c1cc(O)c(O)c2O`, the inhibition result with Pseudomonas aeruginosa [4] is “Active”.
